The subject of this test is spontaneously hypertensive rats. Description: Hypotensive activity in spontaneously hypertensive rats (mean arterial blood pressure). The class given is in vivo, spontaneously hypertensive rats of the Okamoto strain. To be noted: gavage, about 100 mg/kg or less, two doses 24 hours apart, measured at about 28 hours; average MABP of the SHR 170 ±1.5 mm Hg; number of rats in parentheses. Here is the method: Hypotensive Activity in Spontaneously Hypertensive Rats
The novel compounds of the present invention are active hypotensive agents and were tested for hypotensive activity by the method of P. S. Chan and D. Poorvin, Clinical and Experimental Hypertension, 1 (6), 817-830 (1979). Male, 16 week old, spontaneously hypertensive rats of the Okamoto strain, from Taconic Farms, Germantown, N.Y., having an average mean arterial blood pressure of 170 ±1.5 mm of mercury are used in the test. One to 3 rats are used per test compound. A rat is dosed by gavage with a test compound, suspended in approximately 2% pre-boiled starch at a concentration of about 50 mg/ml, at a dose of about 100 mg/kg of body weight or less, with approximately 0.9% sodium chloride loading at a dose of about 25 ml/kg of body weight. A second identical dose of the test compound, without sodium chloride loading, is given about 24 hours later. At about 28 hours after the initial dose the mean arterial blood pressure is measured by the method of Chan and Poorvin vide supra. The procedure is repeated in a second and third rat when necessary.

Structures are written as SMILES. Counter-ions that a name gives are not always drawn.

Results on 15 molecules are retold here after patent US4568685A, “N-[(1H-1,2,4-Triazol-1-yl)alkyl]-arylamides” (American Cyanamid Company, priority 1984, dated 1986).

For the molecule `O=C1c2ccccc2C(=O)N1CCCCn1cncn1` [2-[4-(1H-1,2,4-triazol-1-yl)butyl]-1H-isoindol-1,3(2H)-dione], the “MABP (mean arterial blood pressure)” value is listed as 119 mm Hg.
As to `O=C(NCCCCn1cncn1)c1ccc(Cl)c(Cl)c1` [Example 5, 3,4-Dichloro-N-[4-(1H-1,2,4-triazol-1-yl)butyl]benzamide], the “MABP (mean arterial blood pressure)” value is recorded as 141 mm Hg.
`O=C(NCCCCn1cncn1)c1ccccc1-c1ccccc1` [Example 6, N--[4-(1H--1,2,4-triazol-1-yl)butyl] [1,1'-biphenyl]-2-carboxamide, fumarate]: the “MABP (mean arterial blood pressure)” value turned out to be 145 mm Hg.
Regarding `O=C(NCCCCn1cncn1)c1ccc(Br)cc1` [Example 8, 4-bromo-N--[4-(1H--1,2,4-triazol-1-yl)butyl]benzamide], the “MABP (mean arterial blood pressure)” value turned out to be 137 mm Hg.
In the case of `O=C(NCCCn1cncn1)c1ccc(Cl)c(Cl)c1` [Example 12, 3,4-Dichloro-N-[3-(1H-1,2,4-triazol-1-yl)propyl]benzamide] it was 150 mm Hg; in that of `CC(C)(C)c1ccc(C(=O)NCCCn2cncn2)cc1` [Example 13, 4-(1,1-dimethylethyl)-N--[3-(1H--1,2,4-triazol-1-yl)propyl]benzamide], 123 mm Hg.
As for `N#Cc1ccc(C(=O)NCCCn2cncn2)cc1` [Example 19, 4-cyano-N--[3-(1H--1,2,4-triazol-1-yl)propyl]benzamide], the “MABP (mean arterial blood pressure)” value came out at 119 mm Hg.
As for `Cc1ccc(C(=O)NCCCn2cncn2)cc1` [Example 21, 4-methyl-N--[3-(1H--1,2,4-triazol-1-yl)propyl]benzamide], the figure is 145 mm Hg.
For `O=C(NCCCn1cncn1)c1ccc(Br)cc1` [Example 23, 4-bromo-N--[3-(1H--1,2,4-triazol-1-yl)propyl]benzamide], the “MABP (mean arterial blood pressure)” value worked out at 147 mm Hg.
Turning to `O=C(NCCCn1cncn1)c1ccccc1` [Example 24, N--[3-(1H--1,2,4-triazol-1-yl)propyl]benzamide], the “MABP (mean arterial blood pressure)” value is 124 mm Hg.
Take `O=C(NCCCn1cncn1)c1ccc(I)cc1` [Example 27, 4-Iodo-N-[3-(1H-1,2,4-triazol-1-yl)propyl]benzamide]: the “MABP (mean arterial blood pressure)” value is given as 128 mm Hg.
With `O=C(C=Cc1ccc(Cl)cc1)NCCCn1cncn1` [Example 29, 3-(4-chlorophenyl)-N--[3-(1H--1,2,4-triazol-1-yl)propyl]-2-propenamide], the “MABP (mean arterial blood pressure)” value is listed as 137 mm Hg.
On to `CS(=O)(=O)c1ccc(C(=O)NCCCn2cncn2)cc1` [Example 32, 4-(methylsulfonyl)-N--[3-(1H--1,2,4-triazol-1-yl)propyl]benzamide], for which the “MABP (mean arterial blood pressure)” value was determined as 110 mm Hg.
As to `CN(C)c1ccc(C(=O)NCCCn2cncn2)cc1` [Example 37, 4-(dimethylamino)-N--[3-(1H--1,2,4-triazol-1-yl)propyl]benzamide], the “MABP (mean arterial blood pressure)” value came to 117 mm Hg.
Turning to `O=C(Cc1cccc2ccccc12)NCCCCn1cncn1` [N--[4-(1H--1,2,4-triazol-1-yl)butyl]-1-naphthalene acetamide, fumarate], the “MABP (mean arterial blood pressure)” value worked out at 134 mm Hg.
